Where two headings read alike, the source gives them in different places.
Key:
Assay type in all cases: biochemical
EphA2 = EphA2 (Homo sapiens, UniProt P29317); experiment: Eph receptor kinase activity assay (radiometric), EphA2; settings: for remaining activity at 0.01 µM: 10 nM compound, read-out: EphA2 % act 10 nM; for remaining activity at 0.1 µM: 100 nM compound, read-out: EphA2 % act 100 nM; for remaining activity at 0.3 µM: 300 nM compound, read-out: EphA2 % act 300 nM; for remaining activity at 0.03 µM: 30 nM compound, read-out: EphA2 % act 30 nM
EphA4 = EphA4 (Homo sapiens, UniProt P54764); experiment: Eph receptor kinase activity assay (radiometric), EphA4; settings: for remaining activity at 0.01 µM: 10 nM compound, read-out: EphA4 % act 10 nM; for remaining activity at 0.1 µM: 100 nM compound, read-out: EphA4 % act 100 nM; for remaining activity at 0.3 µM: 300 nM compound, read-out: EphA4 % act 300 nM; for remaining activity at 0.03 µM: 30 nM compound, read-out: EphA4 % act 30 nM
EphB3 = biological target: T1, EphB3 (Homo sapiens, UniProt P54753); experiment: EphB3 radiometric kinase activity assay (33P ATP filter binding); settings: for remaining activity at 0.01 µM: 10 nM compound, read-out: EphB3 % act 10 nM; for remaining activity at 0.1 µM: 100 nM compound, read-out: EphB3 % act 100 nM; for remaining activity at 0.3 µM: 300 nM compound, read-out: EphB3 % act 300 nM; for remaining activity at 0.03 µM: 30 nM compound, read-out: EphB3 % act 30 nM; for IC50: read-out: EphB3 (nM) IC50
T1 sequence (P54753 34-998): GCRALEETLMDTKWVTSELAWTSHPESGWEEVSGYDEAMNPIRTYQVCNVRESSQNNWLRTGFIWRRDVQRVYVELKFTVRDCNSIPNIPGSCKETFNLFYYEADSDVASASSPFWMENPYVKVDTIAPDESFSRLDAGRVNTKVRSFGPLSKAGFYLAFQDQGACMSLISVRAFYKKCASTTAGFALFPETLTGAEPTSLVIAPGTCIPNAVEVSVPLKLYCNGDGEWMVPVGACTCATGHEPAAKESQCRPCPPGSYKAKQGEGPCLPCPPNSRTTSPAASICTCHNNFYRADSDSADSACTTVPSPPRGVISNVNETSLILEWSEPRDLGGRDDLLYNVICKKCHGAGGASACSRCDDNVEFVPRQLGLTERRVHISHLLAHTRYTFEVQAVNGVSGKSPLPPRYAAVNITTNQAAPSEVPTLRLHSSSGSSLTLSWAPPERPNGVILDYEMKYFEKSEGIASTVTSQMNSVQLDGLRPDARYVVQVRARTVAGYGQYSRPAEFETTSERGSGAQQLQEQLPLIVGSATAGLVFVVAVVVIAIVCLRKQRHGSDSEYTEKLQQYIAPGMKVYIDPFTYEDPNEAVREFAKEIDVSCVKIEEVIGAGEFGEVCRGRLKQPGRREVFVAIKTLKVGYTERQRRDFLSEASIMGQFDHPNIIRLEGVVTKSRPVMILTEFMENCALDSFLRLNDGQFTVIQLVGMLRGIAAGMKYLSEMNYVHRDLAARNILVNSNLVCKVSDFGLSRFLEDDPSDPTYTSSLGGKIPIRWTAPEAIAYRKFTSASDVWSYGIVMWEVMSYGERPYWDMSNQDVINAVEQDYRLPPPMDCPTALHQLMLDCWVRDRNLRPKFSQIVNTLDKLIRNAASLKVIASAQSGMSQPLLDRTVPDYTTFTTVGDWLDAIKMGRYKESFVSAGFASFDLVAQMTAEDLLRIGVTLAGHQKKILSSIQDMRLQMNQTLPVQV
Protocol: EphB3 radiometric kinase activity assay. To study the EphB3 kinase activity, a radioactive filter binding assay using 33P ATP was performed as described at the […] International Centre for Kinase profiling. […] The mix was harvested onto P81 filter plates and counts were read on a Topcount NXT.

EphB4 = biological target: T2, EphB4 (Homo sapiens, UniProt P54760); experiment: Eph receptor kinase activity assay (radiometric), EphB4; settings: for remaining activity at 0.01 µM: 10 nM compound, read-out: EphB4 % act 10 nM; for remaining activity at 0.1 µM: 100 nM compound, read-out: EphB4 % act 100 nM; for remaining activity at 0.3 µM: 300 nM compound, read-out: EphB4 % act 300 nM; for remaining activity at 0.03 µM: 30 nM compound, read-out: EphB4 % act 30 nM
T2 sequence (P54760 16-987): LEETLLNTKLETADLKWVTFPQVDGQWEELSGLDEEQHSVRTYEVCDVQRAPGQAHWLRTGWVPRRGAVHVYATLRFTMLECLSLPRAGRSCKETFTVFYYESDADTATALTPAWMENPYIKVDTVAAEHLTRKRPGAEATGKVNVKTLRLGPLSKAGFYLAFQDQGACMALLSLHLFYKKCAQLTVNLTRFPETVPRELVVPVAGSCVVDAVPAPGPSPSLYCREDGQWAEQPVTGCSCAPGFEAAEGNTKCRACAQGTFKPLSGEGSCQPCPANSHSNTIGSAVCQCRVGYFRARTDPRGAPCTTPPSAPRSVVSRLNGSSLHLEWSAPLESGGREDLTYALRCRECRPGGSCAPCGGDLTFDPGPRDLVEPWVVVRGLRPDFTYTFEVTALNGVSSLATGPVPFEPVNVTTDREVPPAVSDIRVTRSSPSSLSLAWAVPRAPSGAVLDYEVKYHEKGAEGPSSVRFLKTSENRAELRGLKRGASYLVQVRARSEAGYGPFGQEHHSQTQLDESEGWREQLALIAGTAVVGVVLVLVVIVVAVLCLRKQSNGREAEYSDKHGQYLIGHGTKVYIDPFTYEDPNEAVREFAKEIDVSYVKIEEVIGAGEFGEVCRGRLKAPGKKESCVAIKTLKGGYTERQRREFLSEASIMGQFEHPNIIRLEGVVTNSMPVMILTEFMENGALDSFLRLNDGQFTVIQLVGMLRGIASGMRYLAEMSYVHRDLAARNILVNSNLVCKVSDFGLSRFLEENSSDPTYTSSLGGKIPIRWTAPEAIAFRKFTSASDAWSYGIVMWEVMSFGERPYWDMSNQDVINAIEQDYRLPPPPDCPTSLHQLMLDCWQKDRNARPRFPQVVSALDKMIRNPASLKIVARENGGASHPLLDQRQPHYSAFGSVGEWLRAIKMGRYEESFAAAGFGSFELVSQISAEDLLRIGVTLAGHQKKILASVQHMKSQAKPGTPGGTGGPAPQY

Sequence of EphA4 (P54764 20-986): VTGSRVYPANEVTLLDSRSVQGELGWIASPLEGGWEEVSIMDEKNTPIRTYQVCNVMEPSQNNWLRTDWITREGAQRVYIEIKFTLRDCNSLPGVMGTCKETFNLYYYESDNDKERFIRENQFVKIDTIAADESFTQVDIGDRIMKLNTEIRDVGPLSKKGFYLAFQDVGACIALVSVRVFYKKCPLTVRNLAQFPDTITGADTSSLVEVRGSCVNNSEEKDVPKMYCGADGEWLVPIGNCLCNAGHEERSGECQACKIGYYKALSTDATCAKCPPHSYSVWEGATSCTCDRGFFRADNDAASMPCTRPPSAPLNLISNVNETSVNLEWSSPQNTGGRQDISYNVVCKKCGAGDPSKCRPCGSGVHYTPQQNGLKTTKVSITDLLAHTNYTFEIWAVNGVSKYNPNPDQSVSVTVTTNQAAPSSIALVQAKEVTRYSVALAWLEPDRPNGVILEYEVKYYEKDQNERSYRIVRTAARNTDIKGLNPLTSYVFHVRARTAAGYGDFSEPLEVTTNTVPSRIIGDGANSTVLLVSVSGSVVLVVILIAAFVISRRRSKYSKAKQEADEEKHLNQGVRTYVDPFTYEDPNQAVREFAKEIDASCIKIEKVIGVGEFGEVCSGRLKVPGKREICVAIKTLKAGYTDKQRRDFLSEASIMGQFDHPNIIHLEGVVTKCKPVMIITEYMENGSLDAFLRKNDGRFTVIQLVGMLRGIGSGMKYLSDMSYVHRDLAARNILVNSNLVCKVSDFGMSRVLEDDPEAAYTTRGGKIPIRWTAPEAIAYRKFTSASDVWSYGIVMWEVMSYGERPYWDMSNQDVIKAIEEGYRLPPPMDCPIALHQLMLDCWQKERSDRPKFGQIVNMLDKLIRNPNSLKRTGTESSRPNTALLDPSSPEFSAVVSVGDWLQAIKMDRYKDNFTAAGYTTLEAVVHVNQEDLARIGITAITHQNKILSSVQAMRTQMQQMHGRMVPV
Sequence of EphA2 (P29317 24-976): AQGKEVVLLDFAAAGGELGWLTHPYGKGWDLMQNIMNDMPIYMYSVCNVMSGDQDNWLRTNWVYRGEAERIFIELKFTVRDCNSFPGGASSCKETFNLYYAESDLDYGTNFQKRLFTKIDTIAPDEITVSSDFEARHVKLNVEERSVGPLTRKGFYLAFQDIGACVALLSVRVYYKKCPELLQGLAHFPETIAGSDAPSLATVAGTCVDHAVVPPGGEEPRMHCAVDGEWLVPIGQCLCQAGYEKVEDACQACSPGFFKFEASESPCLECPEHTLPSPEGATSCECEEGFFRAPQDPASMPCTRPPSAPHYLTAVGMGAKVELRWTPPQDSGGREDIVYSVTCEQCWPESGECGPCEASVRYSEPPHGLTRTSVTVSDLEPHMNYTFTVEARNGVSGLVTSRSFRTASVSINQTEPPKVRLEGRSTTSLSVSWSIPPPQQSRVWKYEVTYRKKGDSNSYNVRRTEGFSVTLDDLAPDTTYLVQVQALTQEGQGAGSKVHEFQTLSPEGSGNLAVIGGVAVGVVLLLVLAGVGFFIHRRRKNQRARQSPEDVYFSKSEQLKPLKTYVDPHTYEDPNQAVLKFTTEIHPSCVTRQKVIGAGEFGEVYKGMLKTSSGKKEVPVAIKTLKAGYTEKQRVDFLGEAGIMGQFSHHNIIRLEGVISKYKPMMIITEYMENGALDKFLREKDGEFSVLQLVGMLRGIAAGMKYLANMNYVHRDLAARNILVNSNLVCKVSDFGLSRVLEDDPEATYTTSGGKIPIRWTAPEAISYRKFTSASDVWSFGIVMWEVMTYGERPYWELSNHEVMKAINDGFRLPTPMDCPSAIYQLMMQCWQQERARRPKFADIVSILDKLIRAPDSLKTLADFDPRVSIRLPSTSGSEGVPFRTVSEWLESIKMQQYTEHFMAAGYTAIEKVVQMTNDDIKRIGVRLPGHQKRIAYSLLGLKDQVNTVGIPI

Structure (SMILES)	remaining activity at 0.01 µM (EphA2) [%]	remaining activity at 0.1 µM (EphA2) [%]	remaining activity at 0.3 µM (EphA2) [%]	remaining activity at 0.01 µM (EphA4) [%]	remaining activity at 0.1 µM (EphA4) [%]	remaining activity at 0.3 µM (EphA4) [%]	remaining activity at 0.01 µM (EphB3) [%]	remaining activity at 0.1 µM (EphB3) [%]	remaining activity at 0.3 µM (EphB3) [%]	remaining activity at 0.01 µM (EphB4) [%]	remaining activity at 0.1 µM (EphB4) [%]	remaining activity at 0.3 µM (EphB4) [%]	remaining activity at 0.03 µM (EphA2) [%]	remaining activity at 0.03 µM (EphA4) [%]	remaining activity at 0.03 µM (EphB3) [%]	remaining activity at 0.03 µM (EphB4) [%]	further results
NCc1ccc(-c2ccc3ncc(C(=O)Nc4ccccc4Cl)n3c2)cc1 [compound 109, 6-(4-(Aminomethyl)phenyl)-N-(2-chlorophenyl)imidazo[1,2-a]pyridine-3-carboxamide]	77	11	0	24	8	5	22	6	4	22	6	3					
NC(=O)c1cccc(-c2ccc3ncc(C(=O)Nc4ccccc4Cl)n3c2)c1 [compound 110, 6-(3-Carbamoylphenyl)-N-(2-chlorophenyl)imidazo[1,2-a]pyridine-3-carboxamide]	71	46	21	65	36	12	58	39	7	75	48	3					
O=C(Nc1ccccc1Cl)c1cnc2ccc(-c3ccccn3)cn12 [compound 112, N-(2-chlorophenyl)-6-(pyridin-2-yl)imidazo[1,2-a]pyridine-3-carboxamide]	53	33	14	50	25	12	50	14	7	37	7	2					
O=C(Nc1ccccc1Cl)c1cnc2ccc(-c3cccnc3)cn12 [compound 113, N-(2-Chlorophenyl)-6-(pyridin-3-yl)imidazo[1,2-a]pyridine-3-carboxamide]	52	29	17	53	26	19	49	16	11	30	7	4					
O=C(Nc1ccccc1Cl)c1cnc2ccc(-c3ccncc3)cn12 [compound 114, N-(2-Chlorophenyl)-6-(pyridin-4-yl)imidazo[1,2-a]pyridine-3-carboxamide]	51	32	14	49	21	10	52	13	5	39	4	4					
O=C(Nc1ccccc1Cl)c1cnc2ccc(-c3ncccn3)cn12 [compound 115, N-(2-Chlorophenyl)-6-(pyrimidin-2-yl)imidazo[1,2-a]pyridine-3-carboxamide]	115	67	40	104	54	34	108	55	28	89	32	9					
O=C(Nc1ccccc1Cl)c1cnc2ccc(-c3ccccc3O)cn12 [compound 116, N-(2-chlorophenyl)-6-(2-hydroxyphenyl)imidazo[1,2-a]pyridine-3-carboxamide]	76.4	61.3		99.5	82.4		112	42.9		96.5	103		84	77	65.5	103	IC50 (EphA2; Table 2, Example 12): 345 nM; IC50 (EphA4; Table 2, Example 12): 248 nM; IC50 (EphB3; Table 2, Example 12): 60 nM; IC50 (EphB4; Table 2, Example 12): 687 nM
COc1cccc(NC(=O)c2cnc3ccc(C4CCNCC4)cn23)c1Cl [compound 117, N-(2-Chloro-3-methoxyphenyl)-6-(piperidin-4-yl)imidazo[1,2-a]pyridine-3-carboxamide]	95.8	80.8		74.7	89.8		110	102		104	86.7		83.8	75.9	110	95.6	IC50 (EphA2; Table 3, Example 13): < 10 nM; IC50 (EphA4; Table 3, Example 13): < 10 nM; IC50 (EphB3; Table 3, Example 13): < 10 nM; IC50 (EphB4; Table 3, Example 13): < 10 nM
COc1ccc(Cl)c(NC(=O)c2cnc3ccc(C4CCNCC4)cn23)c1 [compound 118, N-(2-Chloro-5-methoxyphenyl)-6-(piperidin-4-yl)imidazo[1,2-a]pyridine-3-carboxamide]	104	82.1		87	47.3		116	91.4		97.4	66.5		83.5	55.9	73.9	97.5	IC50 (EphA2; Table 3, Example 13): 288 nM; IC50 (EphA4; Table 3, Example 13): 57 nM; IC50 (EphB3; Table 3, Example 13): 630 nM; IC50 (EphB4; Table 3, Example 13): 407 nM
